Assay [1] concerns TGF-β signaling (TGF-β pSMAD, MPC-11). In words: AlphaScreen SureFire SMAD3 (p-Ser423/425) assay, inhibition of TGF-β signaling. The class given is cell-based. The note with it: Mus musculus, MPC-11, inhibition of TGF-β signaling, p-SMAD3 readout. For orientation: In Alpha technology, singlet oxygen from a donor bead excites a nearby acceptor bead.
Assay [2] relates to GDF8 signaling (GDF pSMAD, MPC11). In words: AlphaScreen SureFire SMAD3 (p-Ser423/425) assay, inhibition of GDF8 signaling. The class given is cell-based. The note with it: Mus musculus, MPC-11, inhibition of GDF8 signaling, p-SMAD3 readout.

Among the data in patent US10287295B2, “TGF-β inhibitors” (Rigel Pharmaceuticals, Inc., priority 2015, dated 2019) are IC50 values, retold here.

Each structure is given as a SMILES string.

Regarding `Cc1nc(-c2ccc(F)c(C)c2)c(-c2ccc3[nH]ncc3c2)[nH]1` [Compound 71, 5-(4-(4-Fluoro-3-methylphenyl)-2-methyl-1H-imidazol-5-yl)-1H-indazole], the figures for the IC50 in assay [1] and in assay [2] were 800 nM and 90 nM, respectively. The like results for `Cc1nc(-c2cc(F)c(F)cc2F)c(-c2ccc3ncnn3c2)[nH]1` [Compound 98, 6-(2-Methyl-4-(2,4,5-trifluorophenyl)-1H-imidazol-5-yl)-[1,2,4]triazolo[1,5-a]pyridine] were, in that order, 190 nM and 50 nM. The corresponding values for `Cc1cccc(-c2ncsc2-c2ccc3[nH]ncc3c2)c1` [Compound 154, 5-(1H-indazol-5-yl)-4-(m-tolyl)thiazole] are 116 nM and 14.5 nM. The corresponding values for `Cc1cc(-c2nc[nH]c2-c2ccc3cn[nH]c3c2)ccc1F` [Compound 4, 6-(4-(4-Fluoro-3-methylphenyl)-1H-imidazol-5-yl)-1H-indazole] are 20 nM and 10 nM. For `Cc1cc(-c2ncn(C)c2-c2ccc3nccnc3c2)ccc1F` [Compound 21, 6-(4-(4-Fluoro-3-methylphenyl)-1-methyl-1H-imidazol-5-yl)quinoxaline], the IC50 in assay [1] came out at 740 nM; in assay [2], 380 nM. For `Cc1cccc(-c2nc[nH]c2-c2ccc3nccnc3c2)c1` [Compound 20, 6-(4-(m-Tolyl)-1H-imidazol-5-yl)quinoxaline], the IC50 in assay [1] worked out at 160 nM; in assay [2], 180 nM. The like results for `Cc1nc(-c2ccc(F)c(C)c2)c(-c2ccc3nccn3c2)[nH]1` [Compound 74, 6-(4-(4-Fluoro-3-methylphenyl)-2-methyl-1H-imidazol-5-yl)imidazo[1,2-a]pyridine] were, in that order, 1410 nM and 200 nM. Take `Cc1nc(-c2ccc(F)c(C)c2)c(-c2ccc3ncccc3c2)[nH]1` [Compound 75, 6-(4-(4-Fluoro-3-methylphenyl)-2-methyl-1H-imidazol-5-yl)quinoline]: the half-maximal inhibitory concentration (IC50) was 4390 nM in assay [1] and 510 nM in assay [2]. Take `Fc1ccc(-c2nc[nH]c2-c2ccc3ncsc3c2)cc1` [Compound 13, 6-(4-(4-Fluorophenyl)-1H-imidazol-5-yl)benzo[d]thiazole]: the half-inhibitory concentration (IC50) in assay [1] is 380 nM; in assay [2], 120 nM.

Consider `CCc1nc(-c2ccc(F)c(C)c2)c(-c2ccc3ncccc3c2)[nH]1` [Compound 111, 6-(2-Ethyl-4-(4-fluoro-3-methylphenyl)-1H-imidazol-5-yl)quinoline], for which the results for the IC50 in assay [1] and in assay [2] were 4480 nM and 790 nM, respectively. The like results for `CCc1nc(-c2cccc(F)c2)c(-c2ccc3ncsc3c2)[nH]1` [Compound 137, 6-(2-Ethyl-4-(3-fluorophenyl)-1H-imidazol-5-yl)benzo[d]thiazole] were, in that order, 2540 nM and 570 nM. The corresponding values for `CCc1nc(-c2cccc(F)c2)c(-c2ccc3nccn3c2)[nH]1` [Compound 138, 6-(2-Ethyl-4-(3-fluorophenyl)-1H-imidazol-5-yl)imidazo[1,2-a]pyridine] are 3260 nM and 730 nM. The corresponding values for `Cn1cnc(-c2cccc(Cl)c2)c1-c1ccc2[nH]ncc2c1` [Compound 60, 5-(4-(3-Chlorophenyl)-1-methyl-1H-imidazol-5-yl)-1H-indazole] are 60 nM and 20 nM. `COc1cccc(-c2nc(N)sc2-c2ccc3nccn3c2)c1` [Compound 184, 5-(imidazo[1,2-a]pyridin-6-yl)-4-(3-methoxyphenyl)thiazol-2-amine]: the figures for the half-maximal inhibitory concentration (IC50) in assay [1] and in assay [2] were 1160 nM and 402 nM, respectively. As for `Cc1cc(-c2ncsc2-c2ccc3[nH]ncc3c2)ccc1F` [Compound 156, 4-(4-fluoro-3-methylphenyl)-5-(1H-indazol-5-yl)thiazole], the figures for the IC50 in assay [1] and in assay [2] were 134 nM and 25.3 nM, respectively. With `Cc1cccc(-c2ncn(C)c2-c2ccc3nccn3c2)c1` [Compound 45, 6-(1-Methyl-4-(m-tolyl)-1H-imidazol-5-yl)imidazo[1,2-a]pyridine], the IC50 is 1780 nM in assay [1] and 440 nM in assay [2]. The corresponding values for `Nc1nc(-c2ccc(F)cc2)c(-c2ccc3nccnc3c2)s1` [Compound 170, 4-(4-fluorophenyl)-5-(quinoxalin-6-yl)thiazol-2-amine] are 656 nM and 98.6 nM. The like results for `Cc1cc(-c2ncn(C)c2-c2ccc3ncccc3c2)ccc1F` [Compound 37, 6-(4-(4-Fluoro-3-methylphenyl)-1-methyl-1H-imidazol-5-yl)quinoline] were, in that order, 920 nM and 260 nM. The like results for `COc1ccc(-c2nc(N)sc2-c2ccc3nccn3c2)cc1` [Compound 163, 5-(imidazo[1,2-a]pyridin-6-yl)-4-(4-methoxyphenyl)thiazol-2-amine] were, in that order, 168 nM and 54 nM. Turning to `CCc1nc(-c2ccc(F)c(C)c2)c(-c2ccc3ncnn3c2)[nH]1` [Compound 108, 6-(2-Ethyl-4-(4-fluoro-3-methylphenyl)-1H-imidazol-5-yl)-[1,2,4]triazolo[1,5-a]pyridine], the values for the IC50 in assay [1] and in assay [2] were 400 nM and 80 nM, respectively. The corresponding values for `CCc1nc(-c2cc(C)cc(F)c2)c(-c2ccc3[nH]ncc3c2)[nH]1` [Compound 142, 5-(2-Ethyl-4-(3-fluoro-5-methylphenyl)-1H-imidazol-5-yl)-1H-indazole] are 4390 nM and 670 nM. The corresponding values for `Clc1cccc(-c2nc[nH]c2-c2ccc3ncccc3c2)c1` [Compound 39, 6-(4-(3-Chlorophenyl)-1H-imidazol-5-yl)quinoline] are 390 nM and 190 nM. The like results for `c1ccc(-c2nc[nH]c2-c2ccc3cn[nH]c3c2)cc1` [Compound 2, 6-(4-Phenyl-1H-imidazol-5-yl)-1H-indazole] were, in that order, 200 nM and 60 nM. For `Nc1nc(-c2cccc(C(F)(F)F)c2)c(-c2ccc3[nH]ncc3c2)s1` [Compound 175, 5-(1H-indazol-5-yl)-4-(3-(trifluoromethyl)phenyl)thiazol-2-amine], the half-inhibitory concentration (IC50) in assay [1] is 938 nM; in assay [2], 154 nM. The like results for `Cc1cccc(-c2nc(C)n(C)c2-c2ccc3[nH]ncc3c2)c1` [Compound 56, 5-(1,2-Dimethyl-4-(m-tolyl)-1H-imidazol-5-yl)-1H-indazole] were, in that order, 5300 nM and 730 nM. Take `CCc1nc(-c2ccc(F)c(F)c2)c(-c2ccc3ncnn3c2)[nH]1` [Compound 132, 6-(4-(3,4-Difluorophenyl)-2-ethyl-1H-imidazol-5-yl)-[1,2,4]triazolo[1,5-a]pyridine]: the IC50 in assay [1] was 1390 nM; in assay [2], 550 nM. The corresponding values for `Cc1nc(-c2cc(F)c(F)c(F)c2)c(-c2ccc3ncccc3c2)[nH]1` [Compound 95, 6-(2-Methyl-4-(3,4,5-trifluorophenyl)-1H-imidazol-5-yl)quinoline] are 1880 nM and 300 nM.

Consider `CNc1nc(-c2ccc(F)cc2)c(-c2ccc3nccn3c2)s1` [Compound 188, 4-(4-fluorophenyl)-5-(imidazo[1,2-a]pyridin-6-yl)-N-methylthiazol-2-amine], for which the IC50 in assay [1] was 365 nM; in assay [2], 784 nM. For `CCc1nc(-c2ccc(F)cc2)c(-c2ccc3nccn3c2)[nH]1` [Compound 123, 6-(2-Ethyl-4-(4-fluorophenyl)-1H-imidazol-5-yl)imidazo[1,2-a]pyridine], the IC50 in assay [1] is 9370 nM; in assay [2], 740 nM.

Regarding `Cn1cnc2ccc(-c3[nH]cnc3-c3ccc(F)c(F)c3)cc21` [Compound 33, 6-(4-(3,4-Difluorophenyl)-1H-imidazol-5-yl)-1-methyl-1H-benzo[d]imidazole], the half-inhibitory concentration (IC50) is 70 nM in assay [1] and 60 nM in assay [2]. In the case of `Fc1cccc(-c2nc[nH]c2-c2ccc3cn[nH]c3c2)c1` [Compound 28, 6-(4-(3-Fluorophenyl)-1H-imidazol-5-yl)-1H-indazole], the IC50 in assay [1] amounted to 60 nM; in assay [2], 50 nM. The like results for `Fc1ccc(-c2nc[nH]c2-c2ccc3ncsc3c2)cc1F` [Compound 34, 6-(4-(3,4-Difluorophenyl)-1H-imidazol-5-yl)benzo[d]thiazole] were, in that order, 140 nM and 70 nM. The like results for `Cc1cccc(-c2ncn(C)c2-c2ccc3ncsc3c2)c1` [Compound 44, 6-(1-Methyl-4-(m-tolyl)-1H-imidazol-5-yl)benzo[d]thiazole] were, in that order, 720 nM and 180 nM. The like results for `Fc1ccc(-c2nc[nH]c2-c2ccc3ncccc3c2)cc1F` [Compound 36, 6-(4-(3,4-Difluorophenyl)-1H-imidazol-5-yl)quinoline] were, in that order, 1480 nM and 500 nM.

For `Cc1nc(-c2ccc(F)cc2)c(-c2ccc3nccn3c2)[nH]1` [Compound 81, 6-(4-(4-Fluorophenyl)-2-methyl-1H-imidazol-5-yl)imidazo[1,2-a]pyridine], the IC50 in assay [1] was found to be 2620 nM; in assay [2], 390 nM. The like results for `CCc1nc(-c2cccc(C)c2)c(-c2ccc3ncnn3c2)[nH]1` [Compound 115, 6-(2-Ethyl-4-(m-tolyl)-1H-imidazol-5-yl)-[1,2,4]triazolo[1,5-a]pyridine] were, in that order, 750 nM and 160 nM. Consider `Cc1cc(-c2nc(N)sc2-c2ccc3nccnc3c2)ccc1F` [Compound 158, 4-(4-fluoro-3-methylphenyl)-5-(quinoxalin-6-yl)thiazol-2-amine], for which the IC50 in assay [1] worked out at 228 nM; in assay [2], 36 nM. The like results for `CCc1nc(-c2cc(C)cc(F)c2)c(-c2ccc3nccn3c2)[nH]1` [Compound 146, 6-(2-Ethyl-4-(3-fluoro-5-methylphenyl)-1H-imidazol-5-yl)imidazo[1,2-a]pyridine] were, in that order, 5960 nM and 1000 nM. For the compound `Cn1cnc2ccc(-c3[nH]cnc3-c3cccc(F)c3)cc21` [Compound 29, 6-(4-(3-Fluorophenyl)-1H-imidazol-5-yl)-1-methyl-1H-benzo[d]imidazole], in assay [2], half-maximal inhibition (IC50) was put at 290 nM.

By IC50 is commonly meant the concentration needed to halve the response being measured.
